The species entered for this assay is Homo sapiens. The experiment in a line: Inhibition of carbonic anhydrase (unknown origin) relative to sulfanilamide.

In turn, `NS(=O)(=O)c1ccccc1` showed a fold change (FC) of 4. The compound `NS(=O)(=O)c1ccc(Cl)cc1` returned a fold change (FC) of 18.

`Nc1ccc(S(N)(=O)=O)cc1` had a fold change (FC) of 1. The result for `NS(=O)(=O)c1ccc([N+](=O)[O-])cc1` reads 23. On to `Cc1ccccc1S(N)(=O)=O`, for which the fold change (FC) is 1.8. `Nc1cccc(S(N)(=O)=O)c1` came in with a fold change (FC) of 2.5.

The values are drawn from ChEMBL document CHEMBL3227972, “Correlation of carbonic anhydrase inhibitory activities of benzenesulfonamides with the data obtained by use of nitrogen-14 nuclear quadrupole resonance” (J Med Chem, 1979).
